From patent publication EP2153845A1, “Endoglin peptides, vaccines and methods for preparing the same” (Julius-Maximilians-Universität Würzburg, priority 2008, dated 2010)
Values belong to the molecule of their own block, whether it stands above or below them.

Tests used:
[1] = tested on: peripheral blood lymphocytes of melanoma patients; assay: human IFN-γ ELISPOT after in vitro peptide stimulation of PBL; format: cell-based; conditions: for specific immune responses / T cell activity in vitro (IFN-γ ELISPOT): PBL of melanoma patients prestimulated in vitro with 10 µM peptide, Figs. 4 and 5; for specific responses in peripheral blood of melanoma patients in comparison to control experiments and parental peptides: IFN-γ ELISPOT, modified versus parental peptides, Fig. 5
Protocol: To extend the sensitivity of the ELISPOT assay, PBL were stimulated once in vitro before analysis (McCutcheon et al., 1997). At day 0, PBL were thawed or freshly isolated from peripheral blood and plated in a cell concentration of 1x10^6/ml and 5 ml/well in 6-well plates (Greiner GmbH, Frickenhausen, Germany) in X-vivo medium (Cambrex Biosciences, Verviers, Belgium) with 10% heat inactivated human AB serum in the presence of 10 µM peptide (GeneScript Corporation, Piscataway, New Jersey, USA). On day 1 and 4 40 U IL-2/ml (Proleukin, Chiron GmbH, Munich, Gemany) were added to the culture. The cultured cells were tested for reactivity in ELISPOT on day 7.
The human IFN-γ ELISPOT assay was used to quantify peptide epitope-specific IFN-γ-releasing effector cells as described in Berke et al. 2000. Nitrocellulose-bottomed 96-well plates (MultiScreen MAIP N45, Millipore GmbH, Schwalbach, Germany) were activated with 35% ethanol, washed with PBS and coated with anti-IFN-γ antibody (1-D1 K, Mabtech, Hamburg, Germany). The wells were washed and blocked by X-vivo medium before adding 1x10^4 stimulator T2 cells loaded with or without 10 µM peptide and 3x10^5, 1x10^5 or 3x10^4 effector cells. After incubation overnight the wells were washed before addition of biotinylated secondary antibody (7-B6-1-Biotin, Mabtech, Hamburg, Germany). The plates were incubated for 2 h, washed, and streptavidine-enzyme conjugate (Streptavidin-ALP-PQ, Mabtech, Hamburg, Germany) was added. Incubation at room temperature for 1 h was followed by addition of enzyme substrate NBT/BCIP (Mabtech, Hamburg, Germany). The reaction was stopped by washing with tap water upon the appearance of dark purple spots. Spots were counted using the ImmunoSpot Series 2.0 Analyzer (CTL Cellular Technology Ltd., Schwäbisch Gmünd, Germany). The peptide-specific CTL frequency was calculated from the numbers of spot-forming cells. All assays were performed in duplicates. Responders were defined as having an average number of > 25 antigen-specific spots per 10^5 Cells (Spots with peptide - Spots without peptide).

[2] = tested on: HLA-A2/k^b transgenic mice; assay: immunization of mice and analysis of immune responses by murine IFN-γ ELISPOT; format: in vivo; conditions: Fig. 6; for T cell IFN-γ responses after immunization of mice: HLA-A2/k^b transgenic mice vaccinated with peptides and incomplete Freund's adjuvant, spleen cells in ELISPOT; for immune responses in the mouse model in comparison to control experiments and parental epitopes: HLA-A2/k^b transgenic mice, modified versus parental peptides
Protocol: HLA-A2/k^b transgenic mice (deposited by Linda A. Sherman at MMRCC, University of North Carolina, Chapel Hill, USA) were immunized with a mixture of 5-6 CD105 peptides (5 µg/peptide) and incomplete Freund's adjuvant 7 times once weekly. Spleen cells were analyzed in a murine IFN-γ ELISPOT after in vitro stimulation. Cells were stimulated for six days with 200 U IL-2/ml and 10 µM peptide loaded, mitomycin C treated LPS blasts, generated by stimulation of HLA-A2k^b spleen cells with 25 µg/ml LPS (Sigma-Aldrich, Taufkirchen, Germany) and 7 µg/ml dextran sulfate for three days. Subsequently 3x10^5, 1x10^5, and 0.3x10^5 spleen cells were seeded with or without 10 µM peptide in RPMI 1640/10% FCS in duplicates in nitrocellulose-bottomed 96-well plates (MultiScreen MAIP N45, Millipore GmbH) coated with an IFN-γ specific coating antibody (Mabtech) and blocked with cell culture medium and incubated overnight. The development of the murine IFN-γ ELISPOT was done as described for the human ELISPOT, with the exception that PBS/0.05% Tween 20 was used as washing buffer and the biotinylated anti-mouse IFN-γ antibody (Mabtech, diluted in PBS/1% BSA) as detection antibody. Table 1: Sequence listing

[3] = target: T1, human leukocyte antigen A2 (HLA-A2) on the acid-stripped HLA-A2 positive cell line JY (human); assay: competitive binding assay on acid-stripped JY cells, flow cytometry
T1 construct: whole, on cells; Empty, acid-stripped HLA-A2 on JY cells; also called HLA-A*0201

[4] = target: T1, human leukocyte antigen A2 (HLA-A2) on …; assay: competitive binding assay vs fluorescein-labeled reference peptide on acid-stripped HLA-A2 positive JY cells, flow cytometry

Molecule: SEQ ID NO: 1 (ALLLASCSL)
specific immune responses / T cell activity in vitro (IFN-γ ELISPOT) [1]: induce T cell activity in vitro very efficiently

Molecule: SEQ ID NO: 3 (LILQGPPYV)
specific immune responses / T cell activity in vitro (IFN-γ ELISPOT) [1]: induce T cell activity in vitro very efficiently
T cell IFN-γ responses after immunization of mice [2]: high T cell IFN-γ responses

Molecule: SEQ ID NO: 7 (SVSEFLLQL)
specific immune responses / T cell activity in vitro (IFN-γ ELISPOT) [1]: induce T cell activity in vitro very efficiently
T cell IFN-γ responses after immunization of mice [2]: high T cell IFN-γ responses

Molecule: SEQ ID NO: 8 (LLHFYTVPI)
specific immune responses / T cell activity in vitro (IFN-γ ELISPOT) [1]: induce T cell activity in vitro very efficiently
T cell IFN-γ responses after immunization of mice [2]: high T cell IFN-γ responses

Molecule: SEQ ID NO: 10 (LLTAALWYI)
specific immune responses / T cell activity in vitro (IFN-γ ELISPOT) [1]: induce T cell activity in vitro very efficiently
T cell IFN-γ responses after immunization of mice [2]: high T cell IFN-γ responses

Molecule: SEQ ID NO: 12 (SLVASFVEV)
specific responses in peripheral blood of melanoma patients in comparison to control experiments and parental peptides [1]: multiplied
specific immune responses / T cell activity in vitro (IFN-γ ELISPOT) [1]: induce T cell activity in vitro very efficiently
T cell IFN-γ responses after immunization of mice [2]: high T cell IFN-γ responses
immune responses in the mouse model in comparison to control experiments and parental epitopes [2]: enhanced immune responses

Molecule: SEQ ID NO: 15 (FLIGALLTV)
specific responses in peripheral blood of melanoma patients in comparison to control experiments and parental peptides [1]: multiplied
specific immune responses / T cell activity in vitro (IFN-γ ELISPOT) [1]: induce T cell activity in vitro very efficiently
T cell IFN-γ responses after immunization of mice [2]: high T cell IFN-γ responses
immune responses in the mouse model in comparison to control experiments and parental epitopes [2]: enhanced immune responses

Molecule: SEQ ID NO: 16 (LLTAALWYV)
specific responses in peripheral blood of melanoma patients in comparison to control experiments and parental peptides [1]: multiplied
specific immune responses / T cell activity in vitro (IFN-γ ELISPOT) [1]: induce T cell activity in vitro very efficiently
T cell IFN-γ responses after immunization of mice [2]: high T cell IFN-γ responses
immune responses in the mouse model in comparison to control experiments and parental epitopes [2]: enhanced immune responses

Molecule: LLLQGPPYV (also called AA 252: leucine) [hCD105 251-259 (252L)]
IC50 [4]: ≤ 3.5 µM

Molecule: LLHFYTVPV (also called AA541: valine) [hCD105 533-541 (541V)]
IC50 [4]: ≤ 3.5 µM

B6: hCD105 482-490 (483L, 490V) (peptide)
peptide: SLSEFLLQV
notes: also called AA 483: leucine AA 490: valine
IC50 [4]: ≤ 3.5 µM

Molecule: LLTAALWYV (also called AA 613: valine) [hCD105 605-613 (613V)]
IC50 [4]: ≤ 3.5 µM

B8: hCD105 605-613 (peptide)
peptide: LLTAALWYI
notes: Synthetic nonamer selected from human CD105 (endoglin); also called parental peptide
binding result [3]: binds

Molecule: FLIGALLTV (also called AA 608: valine) [hCD105 600-608 (608V)]
IC50 [4]: ≤ 3.5 µM

B9: hCD105 600-608 (peptide)
peptide: FLIGALLTA
notes: as for B8
binding result [3]: binds

More lines, now with the values ahead:

binding result [3]: binds
B1: hCD105 61-69 (peptide)
peptide: ILEVHVLFL
notes: as for B8

IC50 [4]: ≤ 3.5 µM
B2: hCD105 309-317 (310L, 317V) (peptide)
peptide: SLVASFVEV
notes: also called AA 310: leucine AA 317: valine

binding result [3]: binds
B3: hCD105 251-259 (peptide)
peptide: LILQGPPYV
notes: as for B8

binding result [3]: binds
B4: hCD105 533-541 (peptide)
peptide: LLHFYTVPI
notes: as for B8

binding result [3]: binds
B5: hCD105 482-490 (peptide)
peptide: SVSEFLLQL
notes: as for B8

binding result [3]: binds
B7: hCD105 419-427 (peptide)
peptide: SMISNEAVV
notes: as for B8

binding result [3]: binds
B10: hCD105 298-306 (peptide)
peptide: GLLGEARML
notes: as for B8

binding result [3]: binds
B11: hCD105 11-19 (peptide)
peptide: ALLLASCSL
notes: as for B8

binding result [3]: binds
B12: hCD105 309-317 (peptide)
peptide: SIVASFVEL
notes: as for B8
